Here are results for three compounds from EP2955179A1, “CONDENSED HETEROCYCLIC COMPOUND” (Sumitomo Chemical Company Limited, priority 2013, dated 2014).

Assay type in all cases: in vivo
The test system of one assay is Culex pipiens pallens. In words: Test Example 10: Culex pipiens pallens larvae in treated water. The note with it: 24 h, active ingredient concentration 3.5 ppm in ion-exchanged water, last-instar larvae, one day later, read-out: death rate. From the text:
20 last-instar larvae of Culex pipiens pallens were released into the solution. One day later, the life and death of the Culex pipiens pallens was examined, and the number of dead insects was counted to calculate the death rate. Death rate (%) = (Number of dead insects/Number of tested insects) × 100 [formula]

The subject of another assay is Plutella xylostella. Put plainly: Test Example 6: spray on cabbage, Plutella xylostella larvae released. Particulars: 120 h, active ingredient 500 ppm, 20 mL/cup sprayed on cabbage, second instar larvae, 25°C for 5 days, read-out: death rate. The method, then:
On the other hand, on cabbage at the third leaf stage planted in a polyethylene cup was sprayed, at a rate 20 mL/cup, the test drug solution. After the drug solution was dried, the foliage part was cut off, and then placed in a 50 mL volume cup. Five second instar larvae of Plutella xylostella were released into the cup, and the cup was sealed with a lid. After the cup was kept at 25°C for 5 days, the number of dead insects was counted. The death rate was calculated according to the following equation. Death rate (%) = (Number of dead insects/Number of tested insects) × 100 [formula]

The subject of another assay is Blattella germanica. In words: whole plant or invertebrate. Particulars: 144 h, read-out: death rate. The method, then:
The formulations of Compounds of Present Invention 1-11, 1-19 and 1-23 as obtained in Formulation Example 5 were diluted with water, so as to have a concentration of the active ingredient of 500 ppm, to prepare a test drug solution.
(§1) A filter paper having a diameter of 5.5 cm was spread on the bottom of a polyethylene cup having the same diameter and 0.7 ml of the test drug solution was added dropwise onto the filter paper, and 30 mg of sucrose was uniformly placed as bait. Into the polyethylene cup, 2 male imagoes of Blattella germanica were released, and the cup was sealed with a lid. After 6 days, the life and death of Blattella germanica was examined, the number of dead insects was counted, and the death rate was calculated according to the following equation. Death rate (%) = (Number of dead insects/Number of tested insects) × 100 [formula]

Assay [1] deals with Nilaparvata lugens. In words: Test Example 4: drench at foot of rice seedling, Nilaparvata lugens larvae released. Particulars: Nilaparvata lugens, soil, 144 h; active ingredient 500 ppm, 5 ml drench at foot of rice seedling, 7 days at 25°C, then third-fourth instar larvae kept 6 days; read-out: control value.
The test system of assay [2] is Aphis gossypii. Put plainly: Test Example 1: foliar spray on cucumber seedling inoculated with Aphis gossypii. The note with it: 144 h, active ingredient 500 ppm, 20 ml sprayed on cucumber seedling, six days after spraying, read-out: control value. The method, then: On the other hand, on a cucumber seedling (the first true leaf stage) planted in a plastic cup was inoculated with about 30 Aphis gossypii (whole stage), and left for a day. 20 ml of the test drug solution was sprayed on the seedling. Six days after spraying, the number of surviving Aphis gossypii parasitic on the leaves of the cucumber was examined, and the control value was calculated according to the following equation: Control value (%) = {1-(Cb×Tai)/(Cai×Tb)} × 100 [formula] wherein the symbols represent as follows: • Cb: the number of insects in a non-treated section before treatment • Cai: the number of surviving parasitic insects in a non-treated section on observation • Tb: the number of insects in a treated section before treatment • Tai: the number of surviving parasitic insects in a treated section on observation • wherein the non-treated section refers to a section where the test drug solution prepared by diluting the formulation obtained as in Formulation Example 5 but not containing the compound of the present invention with the same amount of water as in the treated section was sprayed.

Assay [3] concerns Aphis gossypii. In words: Test Example 2: drench at foot of cucumber seedling, later inoculated with Aphis gossypii. The note with it: soil, 144 h, active ingredient 500 ppm, 5 ml drench at foot of cucumber seedling, 7 days at 25°C, then inoculated and kept 6 days, read-out: control value. The method, then: On the other hand, a cucumber seedling (the second true leaf stage) planted in a plastic cup was drenched at its foot with 5 ml of the test drug solution, and kept in a greenhouse at 25°C for 7 days. On the cucumber leaf surface was inoculated about 30 Aphis gossypii (whole stage), and further kept in the greenhouse for 6 days, then the number of surviving Aphis gossypii parasitic on the leaves of the cucumber was examined, and the control value was calculated according to the following equation: Control value (%) = {1-(Cb×Tai)/(Cai×Tb)} × 100 [formula] wherein the symbols represent as follows: • Cb: the number of insects in a non-treated section before treatment • Cai: the number of surviving parasitic insects in a non-treated section on observation • Tb: the number of insects in a treated section before treatment • Tai: the number of surviving parasitic insects in a treated section on observation • wherein the non-treated section refers to a section where the test drug solution prepared by diluting the formulation obtained as in Formulation Example 5 but not containing the compound of the present invention with the same amount of water as in the treated section was sprayed.

Assay [4] relates to Adoxophyes orana fasciata. Put plainly: Test Example 7: spray on apple tree, Adoxophyes orana fasciata larvae released. The note with it: in Malus domestica, 168 h, active ingredient 500 ppm, 20 mL/cup sprayed on apple tree, first-instar larvae, after 7 days, read-out: death rate. The method, then:
The formulations of Compounds of Present Invention 1-1 to 1-6, 1-10, 1-21, 1-28, 1-31 to 1-34, 1-39 and 1-42 as obtained in Formulation Example 5 were diluted with water, so as to have a concentration of the active ingredient of 500 ppm, to prepare a test spray solution.
On the other hand, an apple tree was planted in a plastic cup, and grown until the seventh-eighth true leaf was spread. To the apple tree was sprayed, at a rate of 20 mL/cup, the test drug solution. After the drug solution was dried, 60 first-instar larvae of Adoxophyes orana fasciata were released, and covered with a plastic cup the bottom of which was cut off and on which a filter paper was put, with the plastic cup cover placed upside-down. After 7 days, the number of dead insects was counted, and the death rate was calculated according to the following equation. Death rate (%) = (Number of dead insects/Number of tested insects) × 100 [formula]

A further assay deals with Musca domestica. In words: whole plant or invertebrate. Particulars: 24 h, read-out: death rate. The method, then:
The formulations of Compounds of Present Invention 1-1, 1-40 and 1-42 as obtained in Formulation Example 5 were diluted with water, so as to have a concentration of the active ingredient of 500 ppm, to prepare a test drug solution.
as §1, with “10 female” for “2 male”, “Musca domestica” for “Blattella germanica”, “24 hours,” for “6 days,”

Assay [5] deals with Nilaparvata lugens. In words: Test Example 3: spray on rice seedling, Nilaparvata lugens larvae released. The note with it: 144 h, active ingredient 500 ppm, 10 ml sprayed on rice seedling, third-fourth instar larvae, after 6 days, read-out: control value.

SMILES strings stand for the structures. Some results are limits rather than exact numbers.

Take `CCN(CC)C(=O)c1cnc(-c2nc3cc(C(F)(F)F)cnc3n2C)c(S(=O)(=O)CC)c1` [Compound of Present Invention 1-11, N,N-diethyl-5-ethylsulfonyl-6-(3-methyl-6-trifluoromethyl-3 H-imidazo[4,5-b]pyridin-2-yl)nicotinamide]: the mortality at 3.5 ppm in the assay on Culex pipiens pallens is ≥ 95%. In addition, the values for the mortality at 500 ppm in the assay with Plutella xylostella, with Blattella germanica and in the assay with Nilaparvata lugens [1] were ≥ 80%, 100% and ≥ 90%, respectively.
`CCS(=O)(=O)c1cc(C(=O)NC)cnc1-c1nc2cc(C(F)(F)F)cnc2n1C` [Compound of Present Invention 1-19]: the mortality at 500 ppm with Aphis gossypii [2] is ≥ 90%; in the assay with Blattella germanica, 100%; in the assay with Aphis gossypii [3], ≥ 90%; in the assay with Nilaparvata lugens [1], ≥ 90%. In addition, in the assay with Culex pipiens pallens, the mortality at 3.5 ppm was ≥ 95%.
`CCS(=O)(=O)c1cc(C(=O)N(C)C)cnc1-c1nc2cc([S+]([O-])C(F)(F)F)ccc2o1` (stereo not drawn) [Compound of Present Invention 1-42]: the mortality at 500 ppm was ≥ 90% in [4]; 100% in the assay with Musca domestica; ≥ 90% in the assay with Nilaparvata lugens [5]; ≥ 80% in the assay with Plutella xylostella; ≥ 90% in the assay on Aphis gossypii [3]; ≥ 90% in the assay with Nilaparvata lugens [1].
